Test results published in patent publication US11957783B2, “Topical immunosensitizers to treat viral and fungal infections” (Squarex, LLC, priority 2018, dated 2024).
Like-named read-outs stand apart in the source and are kept apart here.

Experiments:
herpes labialis outbreak [1] = settings: 2.0% SADBE in DMSO once to arm; placebo 40 days; P=0.009; previous trial (Palli 2017); cited from earlier work
[2] = system: peripheral blood mononuclear cells (PBMC); experiment: PBMC proliferation in vitro (tritiated thymidine incorporation), Example 1; format: cell-based, human; settings: for PBMC Percent proliferation, normalized all three stimuli: normalized to average of group A day 57, n = 36; for PBMC Percent proliferation: n = 12; for Percent proliferation: 2 subjects with largest and smallest day 57-day 1 difference removed, n = 10
Experimental: (§1) After a screening visit at which blood was drawn to test for IgG antibody against HSV-1 and subjects were interviewed for inclusion/exclusion criteria, selected subjects returned for blood draws on day 1. After the blood draw on day 1, subjects in group A only were dosed with SADBE. A petrolatum donut was applied with a cotton swab to form about a 1 cm diameter donut on skin on the inner aspect of the upper arm. Then a separate cotton swab was dipped in a 2% SADBE solution (w/v) in DMSO, and the swab was then used to apply about 10-20 mg of solution over about a 1 cm diameter circle within the petrolatum donut. Immediately after application, the application site was covered with TEGADERM. Subjects were advised to remove the TEGADERM and rinse and wipe the spot three hours later. The group A subjects then returned for blood draws on days 15 and 57 and were queried about adverse events on those dates.
PBMC were isolated using SepMate PBMC isolation tubes (Stem Cell Technologies, Vancouver, Canada) and Ficoll-Paque according to the manufacturer's instructions. PBMC were isolated and suspended in negative control medium at 2 million cells/ml. PBMC suspension (100 μL) was added to 100 μL of medium in quadruplicate in 96-well plates. The plates were prepared in advance and stored at −70° C. The wells were in five different conditions in quadruplicate with these final concentrations after addition of the 100 μL of PBMC suspension in negative control medium. • 1. Negative control in medium (RPMI with glutamine and pen/strep, supplemented with 10% human A/B serum). • 2. Medium plus 16 μg/ml protein from heat-inactivated HSV-1-infected Vero cell extracts. • 3. Medium plus heat-inactivated HSV-1 cell-free virus at a final 7.5 million pfu/ml. • 4. Medium plus Candida cell extract. (Greer item number M15A50, 20,000 pnu/ml allergenic extract mixed molds Candida albicans, was diluted 1/50 into medium). • 5. Positive control, medium plus 10 μg/ml concanavalin A.
A second plate was incubated for 4 days. On the 4th day 1 μCi of tritiated thymidine in 50 μl of fresh negative control medium was added to each well. After 22 hours incubation the cells were harvested onto a filter mat and each well counted by scintillation counting for tritium incorporation into DNA as a quantitative measure of cell division.
The relative proliferation for each test condition was calculated as (avg. CPM test condition−avg. CPM negative control)/(avg. CPM positive control−avg. CPM negative control). The average CPM is the average tritium counts per minute of the 4 wells in a given test condition for a given collection point of a given patient. To calculate the normalized proliferation to all three stimuli, each data point was converted to a percentage proliferation relative to the average proliferation to that stimulus in group C or group A day 57, whichever was being compared to.
Immediately after the blood collection on day 1, the group A subjects (frequent cold sore sufferers) were treated with one dose of topical 2% SADBE in DMSO applied to the inner aspect of the subject's arm. They returned for blood collection on day 15 and day 57, two and 8 weeks after the single dose of drug. The relative proliferation of PBMC from the group A subjects collected on days 1, 15, and 57, in response to the stimuli, is shown in Table 4.

herpes labialis outbreak [3] = experiment: Clinical trial of herpes labialis outbreaks after sensitization dose (Example 2); format: in vivo, human
Experimental: The median time to the next outbreak for the placebo group was 40 days vs more than 122 days for the 2.0% SADBE group, which difference was highly significant (P=0.009) (Palli 2017). SADBE is a topical immunosensitizer that induces a delayed-type hypersensitivity response and is commonly used in the treatment of verruca vulgaris and alopecia areata (Lee 1999; Silverberg 2000, Rokhshar 1998). […]
(p<0.05). The average days to the first outbreak after the sensitization dose was also measured. […] The A: placebo, 0% SADBE in DMSO.

[4] = system: blood cells (B-Cells, T-Cells, helper/cytotoxic); experiment: Blood cell counts of subjects; format: in vivo, human; settings: for Absolute Count CD19 (B-Cells), group average / Helper/Cytotoxic Ratio, group average / Percentage CD3 (T-Cells), group average / Percentage CD19 (B-Cells), group average / T-cell to B-cell ratio, group average: n = 12
Experimental: as §1
(§2) At this study visit where blood was drawn it was tested for blood cell counts, various cytokine levels, and anti-HSV-1 IgG quantitative levels.
Certain blood cell count parameters were measured in the study. Differences vs. group A day 1 that are statistically significant are highlighted in bold underline.

anti-HSV-1 IgG = experiment: Serum anti-HSV-1 IgG quantitative levels; format: in vivo, human; settings: for Level of anti-HSV1 IgG, group average: n = 12
Experimental: as §1, §2
Anti-HSV-1 IgG was quantified in serum collected at each study visit.

In the case of CCCCOc1c(OCCCC)c(=O)c1=O [SADBE, 3,4-Dibutoxy-3-cyclobutene-1,2-dione], the “median time to the next outbreak” value (herpes labialis outbreak [1]) is given as “more than 122 days”, the “PBMC Percent proliferation, normalized all three stimuli” value ([2]; group A Day 15) is given as 71.65% and the “Percent proliferation, normalized all three stimuli” value ([2]; group A Day 57, largest and smallest difference data points removed, n = 30) is given as 99.97%. For the same compound, the “PBMC Percent proliferation, normalized all three stimuli” value ([2]; group A Day 57) was 99.97%, the “PBMC Percent proliferation” value ([2]; stimulus Candida extract, group A Day 15 after one SADBE treatment) was 3.33% and the Percent proliferation ([2]; stimulus Candida extract, group A Day 57) was 3.19%. The “PBMC Percent proliferation” value ([2]; stimulus Candida extract, group A Day 57 after one SADBE treatment) was 7.35%, the “PBMC Percent proliferation” value ([2]; stimulus HSV-1-infected cell extracts, group A Day 15 after one SADBE treatment) was 15.43% and the Percent proliferation ([2]; stimulus HSV-1-infected cell extracts, group A Day 57) was 15.78%. The “PBMC Percent proliferation” value ([2]; stimulus HSV-1-infected cell extracts, group A Day 57 after one SADBE treatment) was 16.96%, the “PBMC Percent proliferation” value ([2]; stimulus HSV-1 virus, group A Day 15 after one SADBE treatment) was 10.52% and the Percent proliferation ([2]; stimulus HSV-1 virus, group A Day 57) was 12.88%. The “PBMC Percent proliferation” value ([2]; stimulus HSV-1 virus, group A Day 57 after one SADBE treatment) was 13.37%, the “proportion who had a first outbreak between 30 and 120 days after receiving the sensitization dose” value (herpes labialis outbreak [3]; pooled groups B and C (2% SADBE in DMSO sensitization), placebo group A 4 of 14) was 5 of 26 and the “median time to the next outbreak, outbreaks in the 21 days after the sensitization dose excluded” value (herpes labialis outbreak [3]; treatment group, counting from day of sensitization dose, placebo 56 days) was “greater than 120 days”. For the same compound, the “median time to the next outbreak” value (herpes labialis outbreak [3]; treatment group, from sensitization dose (2% SADBE), placebo 42 days, log rank P 0.009) was “greater than 120 days”, the “median time to the next outbreak, counting from day 21 after the sensitization dose” value (herpes labialis outbreak [3]; treatment group, placebo 35 days) was “greater than 99 days” and the “subsequent outbreak during the study time” value (herpes labialis outbreak [3]; treatment groups B and C receiving 2% SADBE in DMSO as sensitization dose) was “usually did not have a subsequent outbreak during the study time”. For the same compound, the “median time to next HSV outbreak in treated patients without visible erythema at application site” value (herpes labialis outbreak [3]; versus placebo) was “longer median time to the next HSV outbreak than patients receiving placebo”, the “Absolute Count CD19 (B-Cells), Sample/A1” value ([4]; A15 / group A day 1) was 0.88 and the “Helper/Cytotoxic Ratio, Sample/A1” value ([4]; A15 / group A day 1) was 0.68. For the same compound, the “Percentage CD3 (T-Cells), Sample/A1” value ([4]; A15 / group A day 1) was 1.02, the “Percentage CD19 (B-Cells), Sample/A1” value ([4]; A15 / group A day 1) was 0.83 and the “T-cell to B-cell ratio, Sample/A1” value ([4]; A15 / group A day 1) was 1.35. For the same compound, the “Absolute Count CD19 (B-Cells), Sample minus A1” value ([4]; A15 minus group A day 1) was −22.63 cells/mm^3, the “Helper/Cytotoxic Ratio, Sample minus A1” value ([4]; A15 minus group A day 1) was −1.67 and the “Percentage CD3 (T-Cells), Sample minus A1” value ([4]; A15 minus group A day 1) was 1.42%. The “Percentage CD19 (B-Cells), Sample minus A1” value ([4]; A15 minus group A day 1) was −2.08%, the “T-cell to B-cell ratio, Sample minus A1” value ([4]; A15 minus group A day 1) was 2.41 and the “Absolute Count CD19 (B-Cells), Sample/A1” value ([4]; A57 / group A day 1) was 0.99. For the same compound, the “Helper/Cytotoxic Ratio, Sample/A1” value ([4]; A57 / group A day 1) was 0.83, the “Percentage CD3 (T-Cells), Sample/A1” value ([4]; A57 / group A day 1) was 1.03 and the “Percentage CD19 (B-Cells), Sample/A1” value ([4]; A57 / group A day 1) was 0.95. The “T-cell to B-cell ratio, Sample/A1” value ([4]; A57 / group A day 1) was 1.01, the “Absolute Count CD19 (B-Cells), Sample minus A1” value ([4]; A57 minus group A day 1) was −1.85 cells/mm^3 and the “Helper/Cytotoxic Ratio, Sample minus A1” value ([4]; A57 minus group A day 1) was −0.90. For the same compound, the “Percentage CD3 (T-Cells), Sample minus A1” value ([4]; A57 minus group A day 1) was 2.58%, the “Percentage CD19 (B-Cells), Sample minus A1” value ([4]; A57 minus group A day 1) was −0.58% and the “T-cell to B-cell ratio, Sample minus A1” value ([4]; A57 minus group A day 1) was 0.69. For the same compound, the “Absolute Count CD19 (B-Cells), group average” value ([4]; group A day 15 (A15)) was 171.74 cells/mm^3, the “Helper/Cytotoxic Ratio, group average” value ([4]; group A day 15 (A15)) was 3.58 and the “Percentage CD3 (T-Cells), group average” value ([4]; group A day 15 (A15)) was 77.50%. The “Percentage CD19 (B-Cells), group average” value ([4]; group A day 15 (A15)) was 10.17%, the “T-cell to B-cell ratio, group average” value ([4]; group A day 15 (A15)) was 9.22 and the “Absolute Count CD19 (B-Cells), group average” value ([4]; group A day 57 (A57)) was 192.52 cells/mm^3. The “Helper/Cytotoxic Ratio, group average” value ([4]; group A day 57 (A57)) was 4.35, the “Percentage CD3 (T-Cells), group average” value ([4]; group A day 57 (A57)) was 78.67% and the “Percentage CD19 (B-Cells), group average” value ([4]; group A day 57 (A57)) was 11.67%. For the same compound, the “T-cell to B-cell ratio, group average” value ([4]; group A day 57 (A57)) was 7.50, the “Level of anti-HSV1 IgG, Sample/A1” value (anti-HSV-1 IgG; A15 / group A day 1) was 1.13 and the “Level of anti-HSV1 IgG, Sample minus A1” value (anti-HSV-1 IgG; A15 minus group A day 1) was 1.08 IV. For the same compound, the “Level of anti-HSV1 IgG, Sample/A1” value (anti-HSV-1 IgG; A57 / group A day 1) was 0.91, the “Level of anti-HSV1 IgG, Sample minus A1” value (anti-HSV-1 IgG; A57 minus group A day 1) was −0.73 IV and the “change in anti-HSV1 IgG from day 15 to day 57 in group A” value (anti-HSV-1 IgG; serum, after one SADBE dose, P<0.01) was “highly significant decrease”. For the same compound, the “Level of anti-HSV1 IgG, group average” value (anti-HSV-1 IgG; serum, group A day 15 (A15)) was 9.39 IV and the “Level of anti-HSV1 IgG, group average” value (anti-HSV-1 IgG; serum, group A day 57 (A57)) was 7.58 IV.
